Tested on: secretion of TNF-α from LPS-stimulated human monocytes
Assay: LPS-induced TNF-alpha production in human THP-1 cell line
Assay type: cell-based
Conditions: Monocyte, read-out: EC50, inhibition of secretion of TNF-α from LPS-stimulated human monocytes
Procedure: THP-1 (human, monocytic) cell line was purchased from the American Type Culture Collection (ATCC, Cat. No.TIB 202). Cell line was passaged three times per week in RPMI 1640 (GIBCO), supplemented with 10% heat-inactivated fetal bovine serum (FBS; Omega Scientific, Tarzana, Calif.), 2 mM L-glutamine, 100 U/ml penicillin and 100 μg/ml streptomycin (Gibco/Invitrogen, Carlsbad, Calif.) in a humidified incubator with 95% air and 5% CO2 at 37° C.
For the assay THP-1 cells were harvested, counted and suspended at 1E6 cells/ml in culture medium. 200 μl of cell suspension was added to each well at 96 well plates to provide density of 2×10^5 cells per well. Serial dilutions of P38 compounds were prepared at final concentrations in culture medium from a 10 mM stock solution, and assayed in triplicate. Vehicle was prepared by adjusting culture medium to 0.1% v/v DMSO which corresponds to the concentration of DMSO in the wells with test compounds.
Cells were incubated in presence of the P38 inhibitor for 30 min. After that cells were stimulated with LPS (E. coli 026:B6, 1 μg/ml) for 4 hr at 37° C. in a 5% CO2-incubator. Reaction was stopped by placing samples on ice and centrifuging for 10 min at 1500×g at 4° C. Cell supernatants were harvested and concentration of TNF—was determined by ELISA (BD Pharmingen, San Diego, Calif., Cat. No. 555212), following the manufacturer's instruction. Absorbance read and analyzed at 450 nm on a spectrophotometric ELISA plate reader (Labsystems Multiskan MCC/340). Replicate readings were averaged and the results are expressed as a percent of OD signal from control.

SMILES	EC50 [nM]
CONC(=O)c1ccc(C)c(Nc2nc(NCC3CCCC(CN)C3)nc(N[C@H](C)C(C)(C)C)n2)c1 (stereo partly shown) [Compound 9]	33
CONC(=O)c1ccc(C)c(Nc2nc(NCc3cccc(C)c3)nc(N[C@H](C)C(C)(C)C)n2)c1 [Compound 12]	122
CONC(=O)c1ccc(C)c(Nc2nc(NCC3CCCC(CN)C3)nc(NC3CCCCC3)n2)c1 (stereo not shown) [Compound 11]	11
CONC(=O)c1ccc(C)c(Nc2nc(NCC3CCCC(CN)C3)nc(NC3CCCCC3C)n2)c1 (stereo not shown) [Compound 10]	22
